Laboratory results taken from ChEMBL document CHEMBL4800723, “Data for DCP probe BI-1942” (2021).
Activity calls are given as the source filed them. The rule behind the calls is not given here.

Key:
[1] = target: T1, Kappa-type opioid receptor (Homo sapiens, UniProt P41145); test: GPCRScan assay: inhibition of KOR; set-up: radioligand conc. used [nm] 0.6 – 1.2, parental cells stable HEK
[2] = target: Cannabinoid receptor 2 (Homo sapiens) (UniProt P34972); test: CB2/PERIPH/H Eurofins SafetyScreen44 (BI); settings: Compound concentration 10.0 uM
[3] = target: Delta-type opioid receptor (Homo sapiens) (UniProt P41143); settings: Compound concentration 10.0 uM
Sequence of Delta-type opioid receptor (Homo sapiens) (P41143 whole entry): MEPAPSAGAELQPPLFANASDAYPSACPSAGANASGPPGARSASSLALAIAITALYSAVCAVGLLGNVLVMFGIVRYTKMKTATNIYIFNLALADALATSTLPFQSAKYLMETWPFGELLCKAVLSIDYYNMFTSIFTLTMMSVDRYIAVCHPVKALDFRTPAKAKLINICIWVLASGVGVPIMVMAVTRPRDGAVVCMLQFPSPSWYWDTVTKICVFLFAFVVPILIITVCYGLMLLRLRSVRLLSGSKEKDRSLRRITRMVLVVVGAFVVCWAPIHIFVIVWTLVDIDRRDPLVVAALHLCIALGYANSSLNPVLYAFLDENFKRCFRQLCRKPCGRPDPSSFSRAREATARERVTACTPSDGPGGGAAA

Chymase = Chymase (Homo sapiens, UniProt P23946); test: Angiotensin II formation by CMA1 in human plasma; format: cell-free
[4] = target: 5-hydroxytryptamine receptor 2B (Homo sapiens) (UniProt P41595); settings: Compound concentration 10.0 uM
[5] = target: Mu-type opioid receptor (Homo sapiens) (UniProt P35372); settings: Compound concentration 10.0 uM
[6] = target: D(2) dopamine receptor (Homo sapiens) (UniProt P14416); test: D2SH_AGON Eurofins SafetyScreen44 (BI); settings: filed as agonist, Compound concentration 10.0 uM
[7] = target: 5-hydroxytryptamine receptor 1A (Homo sapiens) (UniProt P08908); test: 5HT1A/H Eurofins SafetyScreen44 (BI); settings: Compound concentration 10.0 uM
[8] = target: L-type calcium channel (dihydropyridine site), Cav1.2 alpha-1C (Rattus norvegicus, UniProt P22002); test: CA+/DHPSI/R Eurofins SafetyScreen44 (BI); set-up: mode of action inhibitor; settings: rat brain, probe [3H](+)PN200-110, compound concentration 10 uM, read-out: % Ctrl
[9] = target: Endothelin-1 receptor (Homo sapiens) (UniProt P25101); test: ETA/H Eurofins SafetyScreen44 (BI); settings: Compound concentration 10.0 uM
Sequence of Endothelin-1 receptor (Homo sapiens) (P25101 whole entry): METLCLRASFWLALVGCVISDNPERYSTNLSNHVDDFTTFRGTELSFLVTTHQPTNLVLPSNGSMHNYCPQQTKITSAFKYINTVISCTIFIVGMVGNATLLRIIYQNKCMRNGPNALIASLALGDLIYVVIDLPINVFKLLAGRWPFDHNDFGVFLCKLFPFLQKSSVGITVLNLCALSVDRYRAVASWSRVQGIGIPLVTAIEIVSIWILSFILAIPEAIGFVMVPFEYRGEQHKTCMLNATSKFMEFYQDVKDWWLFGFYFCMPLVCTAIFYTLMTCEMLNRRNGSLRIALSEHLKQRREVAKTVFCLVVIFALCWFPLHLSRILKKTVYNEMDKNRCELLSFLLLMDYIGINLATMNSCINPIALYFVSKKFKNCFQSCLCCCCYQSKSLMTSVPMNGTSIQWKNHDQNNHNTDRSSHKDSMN

[10] = target: Muscarinic acetylcholine receptor M4 (Homo sapiens) (UniProt P08173); settings: Compound concentration 10.0 uM
[11] = target: Cannabinoid receptor 1 (Homo sapiens) (UniProt P21554); test: CB1(HU)_AGON Eurofins SafetyScreen44 (BI); settings: Rattus norvegicus; filed as agonist; Compound concentration 10.0 uM
[12] = target: GABA-A receptor; anion channel (Rattus norvegicus) (UniProt O09028+P15431+P18506+P18508+P19969+P20236+P23574+P23576+P28471+P28473+P30191+P62813+P63079+P63138+Q91ZM7+Q9ES14); settings: Compound concentration 10.0 uM
[13] = target: 5-hydroxytryptamine receptor 2A (Homo sapiens) (UniProt P28223); settings: Compound concentration 10.0 uM
Trypsin (Homo sapiens) = Trypsin (Homo sapiens) (UniProt P07477+P07478+P35030); test: TRYPSIN_CE Eurofins SafetyScreen44 (BI); format: protein assay; settings: Compound concentration 10.0 uM
[14] = target: 5-hydroxytryptamine receptor 1E (Homo sapiens) (UniProt P28566); settings: Compound concentration 10.0 uM
[15] = target: Beta-secretase 1 (Homo sapiens) (UniProt P56817); test: BACE-1 Eurofins SafetyScreen44 (BI); settings: Compound concentration 10.0 uM
[16] = target: Angiotensin-converting enzyme (Homo sapiens) (UniProt P12821); test: ACE(HU_AMTCH400) Eurofins SafetyScreen44 (BI); settings: Compound concentration 10.0 uM
[17] = target: 5-hydroxytryptamine receptor 1D (Homo sapiens, UniProt P28221); test: GPCRScan assay: inhibition of 5-HT1D; set-up: radioligand conc. used [nm] 1.0 – 2.0, parental cells HEKT
Sequence of 5-hydroxytryptamine receptor 1D (P28221 whole entry): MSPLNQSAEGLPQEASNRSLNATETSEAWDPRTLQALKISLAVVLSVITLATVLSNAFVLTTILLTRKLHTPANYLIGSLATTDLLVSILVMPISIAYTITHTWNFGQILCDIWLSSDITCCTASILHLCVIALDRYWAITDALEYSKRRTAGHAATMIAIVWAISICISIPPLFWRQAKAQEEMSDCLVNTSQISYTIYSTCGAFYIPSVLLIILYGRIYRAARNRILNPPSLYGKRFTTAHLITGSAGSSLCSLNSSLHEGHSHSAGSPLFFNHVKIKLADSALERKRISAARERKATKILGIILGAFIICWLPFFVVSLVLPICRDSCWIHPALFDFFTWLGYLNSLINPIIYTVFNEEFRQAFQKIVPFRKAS

Caspase-2 (Homo sapiens) = Caspase-2 (Homo sapiens) (UniProt P42575); test: CASPASE-2(H) Eurofins SafetyScreen44 (BI); settings: Compound concentration 10.0 uM
[18] = target: 5-hydroxytryptamine receptor 7 (Homo sapiens) (UniProt P34969); settings: Compound concentration 10.0 uM
Caspase-6 (Homo sapiens) = Caspase-6 (Homo sapiens) (UniProt P55212); test: CASPASE-6_CE Eurofins SafetyScreen44 (BI); settings: Compound concentration 10.0 uM
[19] = target: Neutrophil collagenase (Homo sapiens) (UniProt P22894); test: MMP-8(H) Eurofins SafetyScreen44 (BI); settings: Compound concentration 10.0 uM
[20] = target: MAO-A (amine oxidase [flavin-containing] A) (Rattus norvegicus, UniProt P21396); test: MAO-A_ANTAG Eurofins SafetyScreen44 (BI); set-up: mode of action antagonist; scale not given: the % may be the effect or the level left; settings: compound concentration 10 uM, read-out: % Ctrl
Sequence of MAO-A (amine oxidase [flavin-containing] A) (P21396 whole entry): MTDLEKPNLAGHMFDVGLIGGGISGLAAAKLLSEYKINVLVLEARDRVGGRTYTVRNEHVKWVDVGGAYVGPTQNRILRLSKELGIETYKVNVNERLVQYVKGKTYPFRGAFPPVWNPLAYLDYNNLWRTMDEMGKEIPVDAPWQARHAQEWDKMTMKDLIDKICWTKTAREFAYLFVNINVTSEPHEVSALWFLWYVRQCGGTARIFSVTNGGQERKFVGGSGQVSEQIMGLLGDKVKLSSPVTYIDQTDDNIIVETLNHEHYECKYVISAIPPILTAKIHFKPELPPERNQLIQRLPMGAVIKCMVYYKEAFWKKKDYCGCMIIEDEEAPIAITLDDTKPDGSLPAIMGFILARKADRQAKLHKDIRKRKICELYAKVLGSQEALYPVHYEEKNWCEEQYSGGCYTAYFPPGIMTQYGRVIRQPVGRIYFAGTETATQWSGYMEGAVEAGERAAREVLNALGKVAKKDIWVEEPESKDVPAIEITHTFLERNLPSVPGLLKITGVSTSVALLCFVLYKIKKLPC

[21] = target: D(1B) dopamine receptor (Homo sapiens) (UniProt P21918); settings: Compound concentration 10.0 uM
Caspase-8 (Homo sapiens) = Caspase-8 (Homo sapiens) (UniProt Q14790); test: CASPASE8_CE Eurofins SafetyScreen44 (BI); settings: Compound concentration 10.0 uM
[22] = target: Muscarinic acetylcholine receptor M3 (Homo sapiens) (UniProt P20309); test: M3/H Eurofins SafetyScreen44 (BI); settings: Compound concentration 10.0 uM
Sequence of Muscarinic acetylcholine receptor M3 (Homo sapiens) (P20309 whole entry, looked up): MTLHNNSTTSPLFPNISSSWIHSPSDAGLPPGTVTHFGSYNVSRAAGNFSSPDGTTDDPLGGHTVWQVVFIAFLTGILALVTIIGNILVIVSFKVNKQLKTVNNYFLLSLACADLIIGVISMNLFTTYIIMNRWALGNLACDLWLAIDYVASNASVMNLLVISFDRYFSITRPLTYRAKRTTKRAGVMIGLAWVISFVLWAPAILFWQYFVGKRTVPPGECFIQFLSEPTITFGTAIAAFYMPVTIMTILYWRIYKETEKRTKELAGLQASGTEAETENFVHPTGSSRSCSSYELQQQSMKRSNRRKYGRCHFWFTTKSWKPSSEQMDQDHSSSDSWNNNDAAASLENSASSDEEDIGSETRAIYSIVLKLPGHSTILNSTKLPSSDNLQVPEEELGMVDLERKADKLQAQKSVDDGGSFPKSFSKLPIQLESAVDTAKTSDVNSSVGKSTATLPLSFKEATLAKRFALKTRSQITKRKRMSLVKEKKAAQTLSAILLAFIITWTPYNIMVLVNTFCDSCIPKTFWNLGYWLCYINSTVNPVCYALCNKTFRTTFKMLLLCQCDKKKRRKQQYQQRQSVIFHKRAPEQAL

[23] = target: 5-hydroxytryptamine receptor 6 (Homo sapiens) (UniProt P50406); settings: Compound concentration 10.0 uM
[24] = target: Matrilysin (Homo sapiens) (UniProt P09237); test: MMP-7 (H) Eurofins SafetyScreen44 (BI); settings: Compound concentration 10.0 uM
[25] = target: T1, Kappa-type opioid receptor; settings: Compound concentration 10.0 uM
[26] = target: Neutrophil elastase (Homo sapiens) (UniProt P08246); test: ELASTASE(H) Eurofins SafetyScreen44 (BI); settings: Compound concentration 10.0 uM
[27] = target: 5-hydroxytryptamine receptor 2C (Homo sapiens) (UniProt P28335); settings: Compound concentration 10.0 uM
[28] = target: Caspase-10 (Homo sapiens) (UniProt Q92851); test: CASPASE-10(H) Eurofins SafetyScreen44 (BI); settings: Compound concentration 10.0 uM
[29] = target: Muscarinic acetylcholine receptor M1 (Homo sapiens) (UniProt P11229); test: M1/H Eurofins SafetyScreen44 (BI); settings: Compound concentration 10.0 uM
[30] = target: Sodium-dependent dopamine transporter (Homo sapiens) (UniProt Q01959); test: DATRANS/HUM Eurofins SafetyScreen44 (BI); settings: Compound concentration 10.0 uM
[31] = target: 72 kDa type IV collagenase (Homo sapiens) (UniProt P08253); test: MMP-2 (H) Eurofins SafetyScreen44 (BI); settings: Compound concentration 10.0 uM
Sequence of 72 kDa type IV collagenase (Homo sapiens) (P08253 110-660 limits assumed): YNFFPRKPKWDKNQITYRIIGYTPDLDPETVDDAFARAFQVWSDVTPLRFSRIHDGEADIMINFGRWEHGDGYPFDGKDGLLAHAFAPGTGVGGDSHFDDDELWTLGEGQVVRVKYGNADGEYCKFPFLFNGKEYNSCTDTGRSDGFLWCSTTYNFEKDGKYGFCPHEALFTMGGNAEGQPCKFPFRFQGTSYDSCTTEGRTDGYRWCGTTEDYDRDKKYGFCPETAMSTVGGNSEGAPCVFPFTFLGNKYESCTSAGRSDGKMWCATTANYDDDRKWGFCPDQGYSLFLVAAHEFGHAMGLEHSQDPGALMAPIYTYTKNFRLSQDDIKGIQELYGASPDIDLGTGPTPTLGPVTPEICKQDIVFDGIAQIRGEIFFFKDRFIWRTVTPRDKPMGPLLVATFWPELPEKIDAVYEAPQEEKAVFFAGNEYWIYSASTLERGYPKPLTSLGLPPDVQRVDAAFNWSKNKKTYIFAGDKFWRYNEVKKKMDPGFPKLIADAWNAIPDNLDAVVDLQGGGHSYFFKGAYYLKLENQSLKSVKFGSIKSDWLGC

[32] = target: Alpha-1B adrenergic receptor (Homo sapiens) (UniProt P35368); settings: Compound concentration 10.0 uM
Sequence of Alpha-1B adrenergic receptor (Homo sapiens) (P35368 whole entry): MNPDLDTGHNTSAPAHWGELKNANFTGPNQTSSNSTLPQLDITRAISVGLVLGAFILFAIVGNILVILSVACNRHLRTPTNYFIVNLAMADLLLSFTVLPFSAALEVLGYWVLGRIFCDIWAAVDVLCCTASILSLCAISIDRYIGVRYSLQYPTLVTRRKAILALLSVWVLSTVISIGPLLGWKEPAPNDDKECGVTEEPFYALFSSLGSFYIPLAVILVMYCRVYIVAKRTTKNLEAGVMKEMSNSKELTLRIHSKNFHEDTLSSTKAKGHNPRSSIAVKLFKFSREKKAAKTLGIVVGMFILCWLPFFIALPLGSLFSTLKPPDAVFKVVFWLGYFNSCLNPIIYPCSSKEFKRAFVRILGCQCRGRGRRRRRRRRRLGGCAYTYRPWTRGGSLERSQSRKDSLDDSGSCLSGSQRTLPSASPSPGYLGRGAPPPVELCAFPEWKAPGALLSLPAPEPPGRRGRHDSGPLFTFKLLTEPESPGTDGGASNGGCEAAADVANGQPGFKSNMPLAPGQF

Caspase-1 (Homo sapiens) = Caspase-1 (Homo sapiens) (UniProt P29466); test: CASPASE-1(H) Eurofins SafetyScreen44 (BI); settings: Compound concentration 10.0 uM
Sequence of Caspase-1 (Homo sapiens) (P29466 120-297 limits assumed): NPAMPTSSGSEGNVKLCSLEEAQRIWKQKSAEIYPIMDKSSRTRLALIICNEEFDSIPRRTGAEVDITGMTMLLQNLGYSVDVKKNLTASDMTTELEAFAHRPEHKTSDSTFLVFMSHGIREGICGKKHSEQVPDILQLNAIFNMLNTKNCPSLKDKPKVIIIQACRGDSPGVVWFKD
Sequence of Caspase-1 (Homo sapiens) (P29466 317-404 limits assumed): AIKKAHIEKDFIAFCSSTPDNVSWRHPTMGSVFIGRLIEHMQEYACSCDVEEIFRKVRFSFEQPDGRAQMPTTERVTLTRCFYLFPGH

[33] = target: Sodium-dependent noradrenaline transporter (Homo sapiens) (UniProt P23975); settings: Compound concentration 10.0 uM
Sequence of Sodium-dependent noradrenaline transporter (Homo sapiens) (P23975 whole entry): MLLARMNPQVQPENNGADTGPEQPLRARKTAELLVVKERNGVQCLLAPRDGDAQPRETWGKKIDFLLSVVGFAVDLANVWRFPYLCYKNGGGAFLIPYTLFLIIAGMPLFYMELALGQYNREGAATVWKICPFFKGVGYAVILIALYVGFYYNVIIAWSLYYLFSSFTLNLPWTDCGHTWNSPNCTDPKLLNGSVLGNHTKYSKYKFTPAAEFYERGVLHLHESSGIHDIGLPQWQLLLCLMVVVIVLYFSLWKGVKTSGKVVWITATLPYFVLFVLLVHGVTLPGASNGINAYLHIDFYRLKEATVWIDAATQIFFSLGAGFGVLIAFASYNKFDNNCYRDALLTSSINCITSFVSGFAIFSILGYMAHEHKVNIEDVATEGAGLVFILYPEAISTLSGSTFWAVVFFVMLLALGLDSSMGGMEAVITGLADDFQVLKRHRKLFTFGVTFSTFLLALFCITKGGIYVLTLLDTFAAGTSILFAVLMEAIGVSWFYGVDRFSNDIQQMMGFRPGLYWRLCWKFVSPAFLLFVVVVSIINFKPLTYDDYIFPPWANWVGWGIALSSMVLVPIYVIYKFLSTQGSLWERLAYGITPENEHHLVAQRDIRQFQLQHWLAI

[34] = target: Muscarinic acetylcholine receptor M2 (Homo sapiens) (UniProt P08172); settings: Compound concentration 10.0 uM
[35] = target: Alpha-1D adrenergic receptor (Homo sapiens) (UniProt P25100); settings: Compound concentration 10.0 uM
[36] = target: Delta-type opioid receptor (Homo sapiens) (UniProt P41143); test: DELTA2/H Eurofins SafetyScreen44 (BI); settings: Compound concentration 10.0 uM
[37] = target: Histamine H1 receptor (Homo sapiens) (UniProt P35367); settings: Compound concentration 10.0 uM
Caspase-7 (Homo sapiens) = Caspase-7 (Homo sapiens) (UniProt P55210); test: CASPASE-7(H) Eurofins SafetyScreen44 (BI); settings: Compound concentration 10.0 uM
Sequence of Caspase-7 (Homo sapiens) (P55210 24-198 limits assumed): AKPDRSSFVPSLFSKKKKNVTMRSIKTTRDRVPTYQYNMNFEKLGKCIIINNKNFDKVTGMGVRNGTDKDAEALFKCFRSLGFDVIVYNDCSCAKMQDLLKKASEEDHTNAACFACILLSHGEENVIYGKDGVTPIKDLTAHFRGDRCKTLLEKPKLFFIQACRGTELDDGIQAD
Sequence of Caspase-7 (Homo sapiens) (P55210 207-303 limits assumed): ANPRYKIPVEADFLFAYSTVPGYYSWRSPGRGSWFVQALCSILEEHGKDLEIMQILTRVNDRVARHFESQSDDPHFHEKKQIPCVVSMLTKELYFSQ

T1 sequence (P41145 whole entry): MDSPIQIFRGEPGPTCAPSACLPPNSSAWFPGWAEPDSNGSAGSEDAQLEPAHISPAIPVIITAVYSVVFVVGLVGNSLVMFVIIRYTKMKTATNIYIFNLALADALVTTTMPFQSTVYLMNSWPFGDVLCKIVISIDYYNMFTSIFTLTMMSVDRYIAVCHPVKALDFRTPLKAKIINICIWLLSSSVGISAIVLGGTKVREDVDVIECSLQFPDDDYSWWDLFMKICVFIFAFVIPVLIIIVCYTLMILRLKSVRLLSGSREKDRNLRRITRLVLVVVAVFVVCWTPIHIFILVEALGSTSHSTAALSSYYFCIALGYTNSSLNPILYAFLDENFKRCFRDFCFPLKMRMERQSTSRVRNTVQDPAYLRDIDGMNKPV

Compound: CC[C@H](CC(=O)O)n1c(=O)c2ncccc2n(Cc2cn(C)c3cc(C)cc(C)c23)c1=O [BI-1942]
- Ki ([1]; read-out: Ki): 4.95 µM
- Ki ([1]; read-out: pKi (converted)): 4.79 µM
- residual activity [2]: 109%
- inhibition [3]: 9.83%
- IC50 (Chymase): 198 nM (active)
- inhibition [4]: 5.53%
- inhibition [5]: 2.82%
- residual activity [6]: 108%
- residual activity [7]: 79%
- activity at 10 µM [8]: 108% (not active)
- residual activity [9]: 106%
- inhibition [10]: 9.09%
- residual activity [11]: 114%
- inhibition [12]: 3.5%
- inhibition [13]: 0.22%
- residual activity (Trypsin (Homo sapiens)): 108%
- inhibition [14]: -9.73%
- residual activity [15]: 106%
- residual activity [16]: 99%
- Ki [17]: 1130 nM
- residual activity (Caspase-2 (Homo sapiens)): 156%
- inhibition [18]: 27.2%
- residual activity (Caspase-6 (Homo sapiens)): 99%
- residual activity [19]: 107%
- activity at 10 µM [20]: 86% (not active)
- inhibition [21]: 22.2%
- residual activity (Caspase-8 (Homo sapiens)): 88%
- residual activity [22]: 98%
- inhibition [23]: 12.2%
- residual activity [24]: 100%
- inhibition [25]: 95.9%
- residual activity [26]: 101%
- inhibition [27]: 1.02%
- residual activity [28]: 111%
- residual activity [29]: 112%
- residual activity [30]: 101%
- residual activity [31]: 103%
- inhibition [32]: -5.58%
- residual activity (Caspase-1 (Homo sapiens)): 103%
- inhibition [33]: 31.5%
- inhibition [34]: 12%
- inhibition [35]: 12.1%
- residual activity [36]: 95%
- inhibition [37]: 14.1%
- residual activity (Caspase-7 (Homo sapiens)): 101%
